Laboratory results reported in US10303923B1, “Quantitation of NETosis using image analysis” (The University of North Carolina at Chapel Hill, priority 2018, dated 2019).
pEC50: −log10 of the molar value. Entries after “also recorded” stand apart in the source; their conditions may differ. Where two headings read alike, the source gives them in different places.

Key:
[1] = test system: Human neutrophils from healthy volunteers; test: NETosis quantitation by CNN image analysis in adherent neutrophils from healthy volunteers; type: cell-based; settings: read-out: EC50 (concentration inducing 50% of neutrophils to undergo NETosis)
Description: This specification describes an assay for the assessment of 1) the EC50 of NETotic agonists in adherent human neutrophils and 2) the NETosis mechanism specific to these agonists. Neutrophils were isolated from peripheral blood of healthy volunteers and allowed to adhere to 96-well plates before stimulation with different concentrations of agonists. We established our assay with two widely used agonists, PMA, a PKC activator and A23187, a Ca+2 ionophore. NETosis data were acquired using the automated BD Pathway 855 Bio-imaging Systems. An image processing algorithm was created to distinguish two populations related to neutrophil nuclear size, intensity and texture. Our assay is the first to describe a semi-automated imaging and analysis method for the study of NETosis and is a positive step towards standardizing the quantitation of NETosis in isolated cells. This assay has potential applications in screening novel pharmaceuticals and in analyzing cells from patients with various diseases.
Adherent neutrophils were treated for 2 hours with either agonist or DMSO vehicle. DMSO treatment alone causes neutrophil NETosis reaching a maximum response of 30% with 0.16% DMSO. The resulting NETotic nuclei are visually indistinguishable from those observed with PMA- or A23187-treatments as shown graph 204. DMSO is the recommended solvent for both PMA and A23187. […]

[2] = test system: neutrophils from SCD patients; test: NETosis quantitation by CNN image analysis in neutrophils from SCD patients at steady-state; type: cell-based, human; settings: SCD patients at steady-state (n=7), 2 hours treatment, two-way ANOVA
Description: We next applied this assay to an inflammatory disease that has been suspected of being influenced by NETosis; patients with sickle cell disease (SCD) suffer chronic inflammation due to recurrent ischemia/reperfusion injuries and are hypercoagulable. The hypercoagulability is thought to be due to at least in part to circulating NETs similar to other inflammatory diseases. Soluble components presumably from NETs (DNA and nucleosomes) are detectible in plasma from both SCD patients and humanized SCD mice^11, 12. Furthermore, neutrophils from healthy individuals exposed to plasma from SCD patients causes NET generation. Because SCD neutrophils function at a reduced capacity for oxidative burst and produce less ROS than non-SCD neutrophils, we asked whether the ROS-dependent NETosis pathway is affected^13-15. Only patients at steady-state were included in the study. […] Reduction of neutrophils' oxidative burst capacity also occurs in conditions such as chronic granulomatous disease (CGD), and results in reduced NETosis^16. The divergence of our results from those previously published are possibly due to our observation of NETosis in neutrophils directly without the use of a surrogate NETosis biomarker.
The same conditions for cell isolation and treatment were used for neutrophils from SCD patients at steady-state (n=7), and the results are shown in graphs 206 and 208. […]

SMILES	pEC50 ([1]; n=11, 2 hours treatment, ROS-dependent pathway)	NETosis response of SCD neutrophils compared with non-SCD neutrophils [2]	pEC50 ([1]; Homo sapiens, Neutrophil, n=8, 2 hours treatment, PADIV-dependent pathway)
CCCCCCCCCCCCCC(=O)O[C@@H]1[C@@H](C)[C@@]2(O)[C@@H](C=C(CO)C[C@]3(O)C(=O)C(C)=C[C@@H]23)[C@@H]2C(C)(C)[C@]12OC(C)=O [PMA]	8.68	comparatively insensitive; also recorded: responded poorly	–
CNc1ccc2oc(C[C@H]3O[C@@]4(CC[C@H]3C)O[C@H]([C@H](C)C(=O)c3ccc[nH]3)[C@H](C)C[C@H]4C)nc2c1C(=O)O [A23187, Calcimycin]	–	responded similarly; also recorded: little difference was observed between SCD and non-SCD	6.05
